Laboratory results published in ChEMBL document CHEMBL3112450, “Synthesis and in vitro antitumor evaluation of primary amine substituted quinazoline linked benzimidazole” (Bioorg Med Chem Lett, 2014).

Columns and labels:
Type in all cases: functional
[1] = tested on: IGROV-1; assay: Cytotoxicity against human IGROV1 cells assessed as cell growth at 10^-7 M after 48 hrs by SRB assay; conditions: IGROV-1, 48 h, read-out: Activity
[2] = tested on: NCI-H322M; assay: Cytotoxicity against human NCI-H322M cells after 48 hrs by SRB assay
[3] = tested on: NCI-H226; assay: Cytotoxicity against human NCI-H226 cells after 48 hrs by SRB assay; conditions: NCI-H226, 48 h
[4] = tested on: HOP-62; assay: Cytotoxicity against human HOP62 cells after 48 hrs by SRB assay; conditions: HOP-62, 48 h
[5] = tested on: MDA-MB-468; assay: Cytotoxicity against human MDA-MB-468 cells assessed as cell growth at 10^-4 M after 48 hrs by SRB assay; conditions: MDA-MB-468, 48 h, read-out: Activity
[6] = tested on: BT-549; assay: Cytotoxicity against human BT549 cells assessed as cell growth at 10^-4 M after 48 hrs by SRB assay; conditions: BT-549, 48 h, read-out: Activity
[7] = Cytotoxicity against human Hs578T cells assessed as cell growth at 10^-4 M after 48 hrs by SRB assay; conditions: Hs-578T, read-out: Activity
[8] = tested on: MCF7; assay: Cytotoxicity against human MCF7 cells assessed as cell growth at 10^-4 M after 48 hrs by SRB assay; conditions: MCF7, 48 h, read-out: Activity
[9] = tested on: CAKI-1; assay: Cytotoxicity against human Caki1 cells assessed as cell growth at 10^-4 M after 48 hrs by SRB assay; conditions: CAKI-1, 48 h, read-out: Activity
[10] = tested on: M14; assay: Cytotoxicity against human M14 cells assessed as cell growth at 10^-7 M after 48 hrs by SRB assay; conditions: M14, 48 h, read-out: Activity
[11] = tested on: LOX IMVI; assay: Cytotoxicity against human LOXIMVI cells assessed as cell growth at 10^-7 M after 48 hrs by SRB assay; conditions: read-out: Activity
[12] = tested on: SF-268; assay: Cytotoxicity against human SF268 cells assessed as cell growth at 10^-7 M after 48 hrs by SRB assay; conditions: SF-268, 48 h, read-out: Activity
[13] = tested on: HT-29; assay: Cytotoxicity against human HT-29 cells assessed as cell growth at 10^-7 M after 48 hrs by SRB assay; conditions: HT-29, 48 h, read-out: Activity
[14] = tested on: NCI-H460; assay: Cytotoxicity against human NCI-H460 cells assessed as cell growth at 10^-7 M after 48 hrs by SRB assay; conditions: NCI-H460, 48 h, read-out: Activity
[15] = tested on: HOP-92; assay: Cytotoxicity against human HOP92 cells assessed as cell growth at 10^-7 M after 48 hrs by SRB assay; conditions: HOP-92, 48 h, read-out: Activity
[16] = tested on: CCRF-CEM; assay: Cytotoxicity against human CCRF-CEM cells assessed as cell growth at 10^-7 M after 48 hrs by SRB assay; conditions: read-out: Activity
[17] = tested on: SK-OV-3; assay: Cytotoxicity against human SKOV3 cells assessed as cell growth at 10^-4 M after 48 hrs by SRB assay; conditions: SK-OV-3, 48 h, read-out: Activity
[18] = tested on: HCC 2998; assay: Cytotoxicity against human HCC2998 cells assessed as cell growth at 10^-4 M after 48 hrs by SRB assay; conditions: HCC 2998, 48 h, read-out: Activity
[19] = tested on: HOP-62; assay: Cytotoxicity against human HOP62 cells assessed as cell growth at 10^-4 M after 48 hrs by SRB assay; conditions: HOP-62, 48 h, read-out: Activity
[20] = tested on: ACHN; assay: Cytotoxicity against human ACHN cells assessed as cell growth at 10^-8 M after 48 hrs by SRB assay; conditions: read-out: Activity
[21] = tested on: A498; assay: Cytotoxicity against human A498 cells assessed as cell growth at 10^-8 M after 48 hrs by SRB assay; conditions: A498, 48 h, read-out: Activity
[22] = Cytotoxicity against human OVCAR5 cells assessed as cell growth at 10^-8 M after 48 hrs by SRB assay; conditions: OVCAR-5, 48 h, read-out: Activity
[23] = tested on: CCRF-CEM; assay: Cytotoxicity against human CCRF-CEM cells assessed as cell growth at 10^-4 M after 48 hrs by SRB assay; conditions: read-out: Activity
[24] = tested on: LOX IMVI; assay: Cytotoxicity against human LOXIMVI cells assessed as cell growth at 10^-8 M after 48 hrs by SRB assay; conditions: read-out: Activity
[25] = tested on: U-251; assay: Cytotoxicity against human U251 cells assessed as cell growth at 10^-8 M after 48 hrs by SRB assay; conditions: U-251, 48 h, read-out: Activity
[26] = tested on: RPMI-8226; assay: Cytotoxicity against human RPMI8226 cells assessed as cell growth at 10^-8 M after 48 hrs by SRB assay; conditions: RPMI-8226, 48 h, read-out: Activity
[27] = tested on: K562; assay: Cytotoxicity against human K562 cells assessed as cell growth at 10^-8 M after 48 hrs by SRB assay; conditions: K562, 48 h, read-out: Activity
[28] = tested on: 786-0; assay: Cytotoxicity against human 786-0 cells after 48 hrs by SRB assay; conditions: 786-0, 48 h
[29] = tested on: IGROV-1; assay: Cytotoxicity against human IGROV1 cells after 48 hrs by SRB assay; conditions: IGROV-1, 48 h
[30] = tested on: SK-MEL-2; assay: Cytotoxicity against human SK-MEL-2 cells after 48 hrs by SRB assay; conditions: SK-MEL-2, 48 h
[31] = tested on: CAKI-1; assay: Cytotoxicity against human Caki1 cells assessed as cell growth at 10^-6 M after 48 hrs by SRB assay; conditions: CAKI-1, 48 h, read-out: Activity
[32] = tested on: LOX IMVI; assay: Cytotoxicity against human LOXIMVI cells assessed as cell growth at 10^-6 M after 48 hrs by SRB assay; conditions: read-out: Activity
[33] = tested on: SF-295; assay: Cytotoxicity against human SF295 cells assessed as cell growth at 10^-6 M after 48 hrs by SRB assay; conditions: SF-295, 48 h, read-out: Activity
[34] = tested on: HCT-116; assay: Cytotoxicity against human HCT116 cells assessed as cell growth at 10^-6 M after 48 hrs by SRB assay; conditions: HCT-116, 48 h, read-out: Activity
[35] = tested on: NCI-H522; assay: Cytotoxicity against human NCI-H522 cells assessed as cell growth at 10^-6 M after 48 hrs by SRB assay; conditions: NCI-H522, 48 h, read-out: Activity
[36] = tested on: HOP-92; assay: Cytotoxicity against human HOP92 cells assessed as cell growth at 10^-6 M after 48 hrs by SRB assay; conditions: HOP-92, 48 h, read-out: Activity
[37] = tested on: MOLT-4; assay: Cytotoxicity against human MOLT4 cells assessed as cell growth at 10^-6 M after 48 hrs by SRB assay; conditions: MOLT-4, 48 h, read-out: Activity
[38] = tested on: TK-10; assay: Cytotoxicity against human TK10 cells assessed as cell growth at 10^-7 M after 48 hrs by SRB assay; conditions: TK-10, 48 h, read-out: Activity
[39] = tested on: A498; assay: Cytotoxicity against human A498 cells assessed as growth inhibition at 10 uM after 48 hrs by SRB assay; conditions: A498, 48 h, read-out: GI

C=CCn1c(C)nc2ccc(Nc3nc(Nc4ccc5nc(C)n(CC=C)c5c4)c4ccccc4n3)cc21
growth at 0.1 µM [1]: 101% | GI50 [2]: 1.71 µM | LC50 [2]: 6.15 µM | TGI [2]: 3.24 µM | GI50 [3]: 1.75 µM | TGI [3]: 3.31 µM | GI50 [4]: 1.63 µM | TGI [4]: 2.98 µM | growth at 100 µM [5]: -33% | growth at 100 µM [6]: -32% | growth at 100 µM [7]: -15% | growth at 100 µM [8]: -22% | growth at 100 µM [9]: -28% | growth at 0.1 µM [10]: 94% | growth at 0.1 µM [11]: 91% | growth at 0.1 µM [12]: 86% | growth at 0.1 µM [13]: 101% | growth at 0.1 µM [14]: 101% | growth at 0.1 µM [15]: 86% | growth at 0.1 µM [16]: 96% | growth at 100 µM [17]: -54% | growth at 100 µM [18]: -53% | growth at 100 µM [19]: -36% | growth at 0.01 µM [20]: 103% | growth at 0.01 µM [21]: 69% | growth at 0.01 µM [22]: 95% | growth at 100 µM [23]: 2% | growth at 0.01 µM [24]: 91% | growth at 0.01 µM [25]: 96% | growth at 0.01 µM [26]: 99% | growth at 0.01 µM [27]: 96% | GI50 [28]: 1.73 µM | TGI [28]: 3.36 µM | GI50 [29]: 1.83 µM | TGI [29]: 3.4 µM | GI50 [30]: 1.96 µM | TGI [30]: 3.54 µM | growth at 1 µM [31]: 90% | growth at 1 µM [32]: 83% | growth at 1 µM [33]: 97% | growth at 1 µM [34]: 74% | growth at 1 µM [35]: 114% | growth at 1 µM [36]: 70% | growth at 1 µM [37]: 73% | growth at 0.1 µM [38]: 99%

C=CCn1c(C)nc2ccc(Nc3nc(Nc4ccc(F)cc4)nc4ccccc34)cc21
growth at 0.1 µM [1]: 94% | GI50 [2]: 6.16 µM | LC50 [2]: 55.1 µM | TGI [2]: 21.5 µM | GI50 [3]: 1.78 µM | TGI [3]: 3.85 µM | GI50 [4]: 1.88 µM | TGI [4]: 3.76 µM | growth at 100 µM [5]: -37% | growth at 100 µM [6]: -61% | growth at 100 µM [7]: -16% | growth at 100 µM [8]: -37% | growth at 100 µM [9]: -53% | growth at 0.1 µM [10]: 97% | growth at 0.1 µM [11]: 98% | growth at 0.1 µM [12]: 90% | growth at 0.1 µM [13]: 101% | growth at 0.1 µM [14]: 103% | growth at 0.1 µM [15]: 80% | growth at 0.1 µM [16]: 102% | growth at 100 µM [17]: -37% | growth at 100 µM [18]: -80% | growth at 100 µM [19]: -46% | growth at 0.01 µM [20]: 98% | growth at 0.01 µM [21]: 81% | growth at 0.01 µM [22]: 101% | growth at 100 µM [23]: -23% | growth at 0.01 µM [24]: 97% | growth at 0.01 µM [25]: 97% | growth at 0.01 µM [26]: 106% | growth at 0.01 µM [27]: 102% | inhibition of growth at 10 µM [39]: 40% | GI50 [28]: 7.44 µM | TGI [28]: 23.8 µM | CC50 ([28]; read-out: LC50 (the source's name)): 65.1 µM | GI50 [29]: 6.09 µM | LC50 [29]: 98.7 µM | TGI [29]: 27.2 µM | GI50 [30]: 3.16 µM | LC50 [30]: 53.3 µM | TGI [30]: 11.4 µM | growth at 1 µM [31]: 93% | growth at 1 µM [32]: 96% | growth at 1 µM [33]: 91% | growth at 1 µM [34]: 88% | growth at 1 µM [35]: 91% | growth at 1 µM [36]: 41% | growth at 1 µM [37]: 73% | growth at 0.1 µM [38]: 104%

C=CCn1c(C)nc2ccc(Nc3nc(Sc4ccc(N)cc4)nc4ccccc34)cc21
inhibition of growth at 10 µM [39]: 50%

C=CCn1c(C)nc2cc(Nc3nc(NCCO)nc4ccccc34)ccc21
inhibition of growth at 10 µM [39]: 40%

C=CCn1c(C)nc2cc(Nc3nc(Nc4ccc5nc(C)n(CC=C)c5c4)c4ccccc4n3)ccc21
growth at 0.1 µM [1]: 106% | GI50 [2]: 0.717 µM | LC50 [2]: 4.47 µM | TGI [2]: 2 µM | GI50 [3]: 2.03 µM | LC50 [3]: > 100 µM | TGI [3]: 5.04 µM | GI50 [4]: 0.232 µM | TGI [4]: 0.552 µM | growth at 100 µM [5]: -2% | growth at 100 µM [6]: -46% | growth at 100 µM [7]: -21% | growth at 100 µM [8]: 3% | growth at 100 µM [9]: -54% | growth at 0.1 µM [10]: 98% | growth at 0.1 µM [11]: 96% | growth at 0.1 µM [12]: 91% | growth at 0.1 µM [13]: 103% | growth at 0.1 µM [14]: 103% | growth at 0.1 µM [15]: 91% | growth at 0.1 µM [16]: 107% | growth at 100 µM [17]: -29% | growth at 100 µM [18]: -88% | growth at 100 µM [19]: -38% | growth at 0.01 µM [20]: 105% | growth at 0.01 µM [21]: 101% | growth at 0.01 µM [22]: 93% | growth at 100 µM [23]: -19% | growth at 0.01 µM [24]: 95% | growth at 0.01 µM [25]: 97% | growth at 0.01 µM [26]: 100% | growth at 0.01 µM [27]: 103% | GI50 [28]: 0.188 µM | TGI [28]: 0.362 µM | GI50 [29]: 1.54 µM | TGI [29]: 3.01 µM | GI50 [30]: 1.44 µM | TGI [30]: 3.08 µM | growth at 1 µM [31]: 88% | growth at 1 µM [32]: -85% | growth at 1 µM [33]: 78% | growth at 1 µM [34]: -54% | growth at 1 µM [35]: -83% | growth at 1 µM [36]: 45% | growth at 1 µM [37]: -23% | growth at 0.1 µM [38]: 100%
